# In ChEMBL document CHEMBL5715260, “Selectivity Literature for EUbOPEN Chemogenomic Library” (2024):
# Key:
# Parameters in all cases: recommended concentration 1 uM
# [1] = target: T1, Hepatocyte nuclear factor 4-alpha (Homo sapiens) (UniProt P41235); test: Selectivity interaction (Reporter gene assay) EUB0001170a HNF4A
# T1 sequence (whole entry): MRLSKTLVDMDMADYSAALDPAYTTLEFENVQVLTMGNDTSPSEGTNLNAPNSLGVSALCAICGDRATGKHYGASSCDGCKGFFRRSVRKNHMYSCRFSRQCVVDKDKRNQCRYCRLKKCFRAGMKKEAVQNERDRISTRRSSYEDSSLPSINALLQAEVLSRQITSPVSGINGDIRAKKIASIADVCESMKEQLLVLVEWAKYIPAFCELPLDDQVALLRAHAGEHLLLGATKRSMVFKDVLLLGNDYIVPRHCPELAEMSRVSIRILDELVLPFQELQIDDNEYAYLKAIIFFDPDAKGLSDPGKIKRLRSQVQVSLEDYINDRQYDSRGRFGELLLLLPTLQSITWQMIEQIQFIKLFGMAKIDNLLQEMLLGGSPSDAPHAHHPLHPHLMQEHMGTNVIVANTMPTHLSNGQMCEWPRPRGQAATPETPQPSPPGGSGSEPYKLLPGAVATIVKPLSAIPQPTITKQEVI
# [2] = target: Nuclear receptor subfamily 2 group E member 1 (Homo sapiens) (UniProt Q9Y466); test: Selectivity interaction (Reporter gene assay) EUB0001170a NR2E1
# [3] = target: T2, Alpha trans-inducing protein (Human alphaherpesvirus 1) (UniProt A0A5J6DW59); test: Selectivity interaction (Reporter gene assay) EUB0001170a UL48
# [4] = target: Steroidogenic factor 1 (Homo sapiens) (UniProt Q13285); test: Selectivity interaction (Reporter gene assay) EUB0001170a NR5A1
# [5] = target: T3, Retinoic acid receptor RXR-alpha (Homo sapiens) (UniProt P19793); test: Selectivity interaction (Reporter gene assay) EUB0001170a RXRA; conditions: reference bexarotene 1 uM, Selectivity number of off-targets 0.0, Selectivity number of targets 1.0, Source Knowledge inhouse
# T3 sequence (whole entry): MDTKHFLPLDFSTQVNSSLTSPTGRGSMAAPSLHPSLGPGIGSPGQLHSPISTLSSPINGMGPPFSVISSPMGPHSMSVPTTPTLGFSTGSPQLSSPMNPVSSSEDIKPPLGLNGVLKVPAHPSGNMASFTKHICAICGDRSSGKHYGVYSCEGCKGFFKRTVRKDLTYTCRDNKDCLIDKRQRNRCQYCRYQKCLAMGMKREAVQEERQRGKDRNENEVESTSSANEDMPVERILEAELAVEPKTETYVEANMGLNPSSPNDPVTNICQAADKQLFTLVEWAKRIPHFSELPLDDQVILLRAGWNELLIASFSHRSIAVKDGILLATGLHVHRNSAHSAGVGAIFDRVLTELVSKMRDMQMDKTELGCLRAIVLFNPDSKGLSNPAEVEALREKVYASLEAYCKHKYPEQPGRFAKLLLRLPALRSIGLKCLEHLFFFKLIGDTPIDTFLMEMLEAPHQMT
# [6] = target: Nuclear receptor subfamily 4immunitygroup A member 1 (Homo sapiens) (UniProt P22736); test: Selectivity interaction (Reporter gene assay) EUB0001170a NR4A1
# [7] = target: T4, Nuclear receptor subfamily 2 group C member 1 (Homo sapiens) (UniProt P13056); test: Selectivity interaction (Reporter gene assay) EUB0001170a NR2C1
# T4 sequence (whole entry): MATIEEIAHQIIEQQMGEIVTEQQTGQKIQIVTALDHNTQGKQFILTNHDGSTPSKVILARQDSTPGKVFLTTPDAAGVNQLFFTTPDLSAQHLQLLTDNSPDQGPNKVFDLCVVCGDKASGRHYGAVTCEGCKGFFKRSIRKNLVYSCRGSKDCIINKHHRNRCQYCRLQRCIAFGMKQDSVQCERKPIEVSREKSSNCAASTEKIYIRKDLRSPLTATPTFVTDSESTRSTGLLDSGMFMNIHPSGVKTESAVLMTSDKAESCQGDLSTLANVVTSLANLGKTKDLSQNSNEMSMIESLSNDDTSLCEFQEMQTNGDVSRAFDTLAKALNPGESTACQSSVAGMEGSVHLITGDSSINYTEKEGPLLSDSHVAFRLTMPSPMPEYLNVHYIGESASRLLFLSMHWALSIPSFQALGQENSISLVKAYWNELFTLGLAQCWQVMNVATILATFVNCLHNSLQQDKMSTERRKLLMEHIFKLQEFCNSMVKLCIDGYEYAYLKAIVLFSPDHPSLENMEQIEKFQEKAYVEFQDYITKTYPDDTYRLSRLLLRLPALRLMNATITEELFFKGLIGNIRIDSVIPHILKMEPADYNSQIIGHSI
# [8] = target: Nuclear receptor subfamily 4immunitygroup A member 1 (Homo sapiens) (UniProt P22736); test: Selectivity interaction (Reporter gene assay) EUB0001173a NR4A1
# [9] = target: T2, Alpha trans-inducing protein (Human alphaherpesvirus 1); test: Selectivity interaction (Reporter gene assay) EUB0001173a UL48
# [10] = target: Nuclear receptor subfamily 2 group E member 1 (Homo sapiens) (UniProt Q9Y466); test: Selectivity interaction (Reporter gene assay) EUB0001173a NR2E1
# [11] = target: T1, Hepatocyte nuclear factor 4-alpha (Homo sapiens); test: Selectivity interaction (Reporter gene assay) EUB0001173a HNF4A
# [12] = target: T4, Nuclear receptor subfamily 2 group C member 1 (Homo sapiens); test: Selectivity interaction (Reporter gene assay) EUB0001173a NR2C1
# [13] = target: T5, Oxysterols receptor LXR-beta (Homo sapiens) (UniProt P55055); test: Selectivity interaction (Reporter gene assay) EUB0001173a NR1H2; conditions: screened at recom. conc., Selectivity number of off-targets 1.0, Selectivity number of targets 19.0, Source Knowledge inhouse
# T5 sequence (whole entry): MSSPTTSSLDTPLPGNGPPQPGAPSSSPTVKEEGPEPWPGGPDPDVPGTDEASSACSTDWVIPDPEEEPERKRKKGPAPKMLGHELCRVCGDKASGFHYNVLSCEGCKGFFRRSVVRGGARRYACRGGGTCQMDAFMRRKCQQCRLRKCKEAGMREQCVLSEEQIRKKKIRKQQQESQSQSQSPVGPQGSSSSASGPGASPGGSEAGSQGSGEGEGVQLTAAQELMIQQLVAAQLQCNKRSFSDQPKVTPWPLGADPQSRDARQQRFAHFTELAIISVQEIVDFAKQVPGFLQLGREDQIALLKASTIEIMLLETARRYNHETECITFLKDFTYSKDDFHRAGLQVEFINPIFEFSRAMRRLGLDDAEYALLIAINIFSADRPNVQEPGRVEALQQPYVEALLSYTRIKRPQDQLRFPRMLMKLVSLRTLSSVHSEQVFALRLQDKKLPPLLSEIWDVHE
# [14] = target: Steroidogenic factor 1 (Homo sapiens) (UniProt Q13285); test: Selectivity interaction (Reporter gene assay) EUB0001173a NR5A1
# [15] = target: T3, Retinoic acid receptor RXR-alpha (Homo sapiens); test: Selectivity interaction (Reporter gene assay) EUB0001173a RXRA
# [16] = target: T2, Alpha trans-inducing protein (Human alphaherpesvirus 1); test: Selectivity interaction (Reporter gene assay) EUB0001477a UL48
# [17] = target: T3, Retinoic acid receptor RXR-alpha (Homo sapiens); test: Selectivity interaction (Reporter gene assay) EUB0001477a RXRA; conditions: reference bexarotene 1 uM, Selectivity number of off-targets 0.0, Selectivity number of targets 1.0, Source Knowledge inhouse
# [18] = target: Nuclear receptor subfamily 2 group E member 1 (Homo sapiens) (UniProt Q9Y466); test: Selectivity interaction (Reporter gene assay) EUB0001477a NR2E1
# [19] = target: Steroidogenic factor 1 (Homo sapiens) (UniProt Q13285); test: Selectivity interaction (Reporter gene assay) EUB0001477a NR5A1
# [20] = target: T1, Hepatocyte nuclear factor 4-alpha (Homo sapiens); test: Selectivity interaction (Reporter gene assay) EUB0001477a HNF4A
# [21] = target: Nuclear receptor subfamily 4immunitygroup A member 1 (Homo sapiens) (UniProt P22736); test: Selectivity interaction (Reporter gene assay) EUB0001477a NR4A1
# [22] = target: T4, Nuclear receptor subfamily 2 group C member 1 (Homo sapiens); test: Selectivity interaction (Reporter gene assay) EUB0001477a NR2C1
# [23] = target: T2, Alpha trans-inducing protein (Human alphaherpesvirus 1); test: Selectivity interaction (Reporter gene assay) EUB0001172a UL48
# [24] = target: Steroidogenic factor 1 (Homo sapiens) (UniProt Q13285); test: Selectivity interaction (Reporter gene assay) EUB0001478a NR5A1
# [25] = target: Nuclear receptor subfamily 4immunitygroup A member 1 (Homo sapiens) (UniProt P22736); test: Selectivity interaction (Reporter gene assay) EUB0001478a NR4A1
# [26] = target: T2, Alpha trans-inducing protein (Human alphaherpesvirus 1); test: Selectivity interaction (Reporter gene assay) EUB0001478a UL48
# [27] = target: T1, Hepatocyte nuclear factor 4-alpha (Homo sapiens); test: Selectivity interaction (Reporter gene assay) EUB0001478a HNF4A
# [28] = target: T4, Nuclear receptor subfamily 2 group C member 1 (Homo sapiens); test: Selectivity interaction (Reporter gene assay) EUB0001478a NR2C1
# [29] = target: T3, Retinoic acid receptor RXR-alpha (Homo sapiens); test: Selectivity interaction (Reporter gene assay) EUB0001478a RXRA
# [30] = target: Nuclear receptor subfamily 2 group E member 1 (Homo sapiens) (UniProt Q9Y466); test: Selectivity interaction (Reporter gene assay) EUB0001478a NR2E1
# T2 sequence (A0A5J6DW59 as listed by the source): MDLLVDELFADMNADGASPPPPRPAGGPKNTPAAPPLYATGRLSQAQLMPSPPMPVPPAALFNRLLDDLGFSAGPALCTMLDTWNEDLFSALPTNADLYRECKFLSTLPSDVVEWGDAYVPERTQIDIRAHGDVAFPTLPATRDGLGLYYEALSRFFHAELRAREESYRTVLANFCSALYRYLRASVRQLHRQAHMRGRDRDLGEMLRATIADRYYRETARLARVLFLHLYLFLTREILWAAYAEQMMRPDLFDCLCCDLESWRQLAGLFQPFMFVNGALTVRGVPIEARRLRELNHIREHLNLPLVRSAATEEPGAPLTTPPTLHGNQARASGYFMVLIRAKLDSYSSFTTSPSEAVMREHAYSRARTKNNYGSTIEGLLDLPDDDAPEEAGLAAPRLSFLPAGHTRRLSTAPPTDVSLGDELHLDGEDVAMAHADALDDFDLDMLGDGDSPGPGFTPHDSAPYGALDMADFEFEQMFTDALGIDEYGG
# Nuclear receptor subfamily 2 group E member 1 (Homo sapiens), sequence (Q9Y466 whole entry): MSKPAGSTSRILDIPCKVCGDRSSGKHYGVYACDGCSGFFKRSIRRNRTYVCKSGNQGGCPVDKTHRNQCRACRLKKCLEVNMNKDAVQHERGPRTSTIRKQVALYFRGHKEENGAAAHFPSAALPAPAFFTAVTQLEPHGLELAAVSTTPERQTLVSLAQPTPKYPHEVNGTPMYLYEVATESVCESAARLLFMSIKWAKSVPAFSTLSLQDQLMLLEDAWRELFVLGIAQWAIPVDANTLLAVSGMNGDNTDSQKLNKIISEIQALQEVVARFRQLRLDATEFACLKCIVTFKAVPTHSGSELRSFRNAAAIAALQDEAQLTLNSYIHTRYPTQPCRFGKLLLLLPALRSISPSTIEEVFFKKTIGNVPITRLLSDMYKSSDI
# Nuclear receptor subfamily 4immunitygroup A member 1 (Homo sapiens), sequence (P22736 whole entry): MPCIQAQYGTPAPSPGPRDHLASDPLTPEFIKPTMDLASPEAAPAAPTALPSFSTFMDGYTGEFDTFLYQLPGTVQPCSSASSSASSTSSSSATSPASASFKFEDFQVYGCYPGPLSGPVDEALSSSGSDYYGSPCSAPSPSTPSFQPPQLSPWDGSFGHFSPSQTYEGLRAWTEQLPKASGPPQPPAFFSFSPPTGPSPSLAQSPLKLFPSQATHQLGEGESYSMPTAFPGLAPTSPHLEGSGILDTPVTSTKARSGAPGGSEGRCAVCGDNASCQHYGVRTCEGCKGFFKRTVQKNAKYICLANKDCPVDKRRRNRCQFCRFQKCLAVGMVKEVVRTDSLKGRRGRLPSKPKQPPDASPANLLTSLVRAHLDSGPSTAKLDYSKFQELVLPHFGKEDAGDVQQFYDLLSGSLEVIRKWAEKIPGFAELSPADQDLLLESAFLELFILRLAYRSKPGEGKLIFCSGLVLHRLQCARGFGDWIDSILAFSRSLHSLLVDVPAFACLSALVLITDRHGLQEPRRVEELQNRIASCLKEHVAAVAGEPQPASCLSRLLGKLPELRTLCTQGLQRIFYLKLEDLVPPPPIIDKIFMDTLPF
# Steroidogenic factor 1 (Homo sapiens), sequence (Q13285 whole entry): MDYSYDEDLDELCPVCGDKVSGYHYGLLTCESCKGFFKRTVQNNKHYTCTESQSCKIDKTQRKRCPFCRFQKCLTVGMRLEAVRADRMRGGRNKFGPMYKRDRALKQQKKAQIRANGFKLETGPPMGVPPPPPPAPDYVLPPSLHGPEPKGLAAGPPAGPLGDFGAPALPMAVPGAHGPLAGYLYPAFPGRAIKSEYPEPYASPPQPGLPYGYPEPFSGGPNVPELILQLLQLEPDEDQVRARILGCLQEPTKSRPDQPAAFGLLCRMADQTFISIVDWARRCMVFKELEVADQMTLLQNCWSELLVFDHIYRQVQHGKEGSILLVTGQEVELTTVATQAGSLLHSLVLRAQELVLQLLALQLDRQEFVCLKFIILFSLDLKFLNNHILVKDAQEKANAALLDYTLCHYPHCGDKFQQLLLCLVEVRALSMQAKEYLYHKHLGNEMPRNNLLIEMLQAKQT
smiles,measurement,setting,value
CC(C)C(=O)N1CCC(c2cn(C)c3ncc(NC(=O)c4cccc(C#N)c4)c(C(F)(F)F)c23)CC1,Fold activation,[1],1.08
same,Remaining activity,[2],0.839
same,P-value,[3],0.00111
same,Fold activation,[4],1.12
same,Relative activation,[5],0.336%
same,Fold activation,[6],1.14
same,Remaining activity,[7],0.916
Cn1cc(C(=O)O)c2ccc(N3CCC(OCc4c(-c5c(Cl)cccc5Cl)noc4C4CC4)CC3)cc21,Fold activation,[8],1.01
same,P-value,[9],1.58e-05
same,Fold activation,[10],1.08
same,Fold activation,[11],1.11
same,Fold activation,[12],1.23
same,Fold activation,[13],5.89
same,Fold activation,[14],0.997
same,Relative activation,[15],0.539%
Clc1ccc(-c2nc3sccn3c2/C=N/OCc2ccc(Cl)c(Cl)c2)cc1,P-value,[16],0.000158
same,Relative activation,[17],0.637%
same,Remaining activity,[18],0.989
same,Fold activation,[19],1.19
same,Fold activation,[20],1.11
same,Remaining activity,[21],0.934
same,Fold activation,[22],1.23
CC(C)(C[C@H]1CN(S(=O)(=O)c2cccc(C(F)(F)F)c2)c2cc(-c3cc(F)cc(OC(F)F)c3)ccc2O1)C(=O)O,P-value,[23],4.9e-12
C=C1/C(=C\C=C2/CCC[C@]3(C)[C@@H]([C@H](C)CCCC(C)(C)O)CC[C@@H]23)C[C@@H](O)C[C@@H]1O,Remaining activity,[24],0.937
same,Fold activation,[25],1.22
same,P-value,[26],6.76e-09
same,Remaining activity,[27],0.883
same,Fold activation,[28],1.06
same,Relative activation,[29],0.656%
same,Fold activation,[30],1.03
